Measured values published in ChEMBL document CHEMBL4359861, “Design, synthesis and anti-inflammatory evaluation of 3-amide benzoic acid derivatives as novel P2Y14 receptor antagonists” (Eur J Med Chem, 2019).
Values after ≈ are worked out from the molar mass of the structure shown. One block for each molecule: values may come before it. Active and inactive are the calls of the source. The rule behind the calls is not given here.

How the values were obtained:
THP-1 [1] = assay: Inhibition of pyroptosis in human THP1 cells assessed as inhibition of MSU-induced increase in caspase1 level at 10 uM pretreated for 1 hr followed by MSU treatment and measured after 12 hrs by PI staining based flow cytometric analysis; assay type: functional, cell-based
[2] = Solubility of compound in pH 7.4 PBS buffer vortex for 1 min followed by 10 mins sonication and further incubated for overnight under shaking condition by UV-vis absorption spectrometric method; assay type: physicochemical
THP-1 [3] = assay: Inhibition of inflammasome in human THP1 cells assessed as reversal of MSU-induced increase in ASC protein level at 10 uM pretreated for 1 hr followed by MSU treatment and measured after 12 hrs by Western blot analysis; assay type: functional, cell-based
THP-1 [4] = assay: Inhibition of inflammasome in human THP1 cells assessed as reversal of MSU-induced increase in caspase1 p20 protein level at 10 uM pretreated for 1 hr followed by MSU treatment and measured after 12 hrs by Western blot analysis; assay type: functional, cell-based
THP-1 [5] = assay: Inhibition of inflammasome in human THP1 cells assessed as reversal of MSU-induced increase in NLRP3 protein level at 10 uM pretreated for 1 hr followed by MSU treatment and measured after 12 hrs by Western blot analysis; assay type: functional, cell-based
THP-1 [6] = assay: Inhibition of inflammasome in human THP1 cells assessed as reversal of MSU-induced co-localization of NLRP3 at 10 uM pretreated for 1 hr followed by MSU treatment and measured after 12 hrs by DAPI staining based confocal laser scanning microscopic method; assay type: functional, cell-based
THP-1 [7] = assay: Inhibition of pyroptosis in human THP1 cells assessed as inhibition of MSU-induced increase in IL-1beta level at 10 uM by ELISA; assay type: functional, cell-based
P2Y purinoceptor 14 = target: T1, P2Y purinoceptor 14 (Homo sapiens, UniProt Q15391); assay: Antagonist activity at human P2Y14R stably expressed in human forskolin treated THP1 cells assessed as reduction in P2Y14R agonist UDPG-induced inhibition of cAMP production incubated for 15 mins by competitive enzyme-linked immunoassay; assay type: functional, cell-based
T1 sequence (Q15391 whole entry): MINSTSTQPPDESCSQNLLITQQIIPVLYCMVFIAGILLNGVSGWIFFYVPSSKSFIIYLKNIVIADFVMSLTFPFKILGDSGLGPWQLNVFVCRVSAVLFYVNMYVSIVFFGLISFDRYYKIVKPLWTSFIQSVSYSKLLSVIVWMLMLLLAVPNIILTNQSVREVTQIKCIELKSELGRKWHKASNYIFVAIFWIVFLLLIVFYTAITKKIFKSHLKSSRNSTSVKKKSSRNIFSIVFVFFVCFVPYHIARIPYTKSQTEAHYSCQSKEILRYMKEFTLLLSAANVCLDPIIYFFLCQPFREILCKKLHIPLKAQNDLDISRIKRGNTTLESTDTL

THP-1 [8] = assay: Inhibition of pyroptosis in human THP1 cells assessed as inhibition of MSU-induced increase in caspase1 level at 5 to 20 uM pretreated for 1 hr followed by MSU treatment and measured after 12 hrs by PI staining based flow cytometric analysis; assay type: functional, cell-based
THP-1 [9] = assay: Inhibition of inflammasome in human THP1 cells assessed as reversal of MSU-induced increase in caspase1 p20 protein level at 5 to 20 uM pretreated for 1 hr followed by MSU treatment and measured after 12 hrs by Western blot analysis; assay type: functional, cell-based
THP-1 [10] = assay: Inhibition of pyroptosis in human THP1 cells assessed as inhibition of MSU-induced increase in IL-1beta level at 5 to 20 uM by ELISA; assay type: functional, cell-based
[11] = Microsomal stability in rat liver microsomes assessed as parent compound remaining at 20 uM measured for 10 to 120 mins in presence of NADPH by LC-MS/MS analysis; assay type: ADME, Microsome
[12] = Microsomal stability in human liver microsomes assessed as parent compound remaining at 20 uM measured for 10 to 120 mins in presence of NADPH by LC-MS/MS analysis; assay type: ADME, Microsome
THP-1 [13] = assay: Inhibition of inflammasome in human THP1 cells assessed as reversal of MSU-induced co-localization of NLRP3 at 5 to 20 uM pretreated for 1 hr followed by MSU treatment and measured after 12 hrs by DAPI staining based confocal laser scanning microscopic method; assay type: functional, cell-based
[14] = Ratio of solubility for test compound to solubility for PPTN; assay type: physicochemical
THP-1 [15] = assay: Inhibition of inflammasome in human THP1 cells assessed as reversal of MSU-induced increase in NLRP3 protein level at 5 to 20 uM pretreated for 1 hr followed by MSU treatment and measured after 12 hrs by Western blot analysis; assay type: functional, cell-based
[16] = target: T2, P2Y purinoceptor 14 (Homo sapiens) (UniProt Q15391); assay: Inhibition of P2Y14 in human THP1 cells assessed as reversal of MSU-induced reduction in cAMP production at 5 to 20 uM pretreated for 1 hr followed by MSU treatment and measured after 12 hrs by ELISA; assay type: functional, cell-based
T2 sequence (whole entry): T1 sequence (Q15391 whole entry)

THP-1 [17] = assay: Inhibition of inflammasome in human THP1 cells assessed as reversal of MSU-induced increase in ASC protein level at 5 to 20 uM pretreated for 1 hr followed by MSU treatment and measured after 12 hrs by Western blot analysis; assay type: functional, cell-based

- solubility thermodynamic [2]: < 5 µg/mL
SMILES: O=C(O)c1cc(-c2ccc(C3CCNCC3)cc2)c2ccc(-c3ccc(C(F)(F)F)cc3)cc2c1 [PPTN]
- inhibition (THP-1 [1]): Active
- inhibition (THP-1 [3]): Active
- inhibition (THP-1 [4]): Active
- inhibition (THP-1 [5]): Active
- inhibition (THP-1 [6]): Active
- inhibition (THP-1 [7]): Active

- IC50 (P2Y purinoceptor 14): 3.17 nM
SMILES: O=C(O)c1cc(NC(=O)c2ccncc2)cc(-c2ccc(C3CCNCC3)cc2)c1

- IC50 (P2Y purinoceptor 14): 4.95 nM
SMILES: O=C(O)c1cc(NC(=O)c2ccccc2)cc(-c2ccc(C3CCNCC3)cc2)c1

- IC50 (P2Y purinoceptor 14): 4.54 nM
SMILES: N#Cc1ccc(C(=O)Nc2cc(C(=O)O)cc(-c3ccc(C4CCNCC4)cc3)c2)cc1

- IC50 (P2Y purinoceptor 14): 1.77 nM
- half-life at 20 µM [11]: > 1 h
- half-life at 20 µM [12]: > 1 h
- solubility thermodynamic [2]: 572 µg/mL (≈ 1380 µM)
- Ratio [14]: > 100
- inhibition [16]: Active
SMILES: Cc1ccc(C(=O)Nc2cc(C(=O)O)cc(-c3ccc(C4CCNCC4)cc3)c2)cc1
- inhibition (THP-1 [8]): Active
- inhibition (THP-1 [9]): Active
- inhibition (THP-1 [10]): Active
- inhibition (THP-1 [13]): Active
- inhibition (THP-1 [15]): Active
- inhibition (THP-1 [17]): Active

- IC50 (P2Y purinoceptor 14): 5.06 nM
SMILES: O=C(O)c1cc(NC(=O)c2ccc([N+](=O)[O-])cc2)cc(-c2ccc(C3CCNCC3)cc2)c1

- IC50 (P2Y purinoceptor 14): 4.35 nM
SMILES: O=C(O)c1cc(NC(=O)c2cnccn2)cc(-c2ccc(C3CCNCC3)cc2)c1
